Patent US10849904B2, “Methods for treatment of retinal disease by photoreceptor gene expression modulation” (University of Washington, priority 2015, dated 2020)

Columns and labels:
Thrb (Trβ2) = assay: Cone gene expression, Thrb (FIG. 5)
[1] = test system: intact retinas from P12 wild type mice; assay: P12 mouse retinal explant culture, qPCR for rod gene expression; type: cell-based; settings: P12 explants, 1 μM, 2 days, vs DMSO
Source text: To identify functional Nr2e3 antagonists, compounds were cheminformatically searched and structural analogs of a putative Nr2e3 interacting compound with unknown function were collected. See FIGS. 2 and 4 for the structures of the compounds. The collected compounds were then screened in a physiologically relevant primary culture assay using intact retinas from postnatal day 12-13 (P12-13) C57BL/6 mice for suppression of Rho expression (See FIG. 6A). After a 2 day culture period with media containing DMSO or compounds at 1 μM, the retinas were collected and assessed Rho expression by qPCR. Rho was chosen because it is a well-described target of Nr2e3 in rod photoreceptors. […] This analysis also provided an initial structure-activity relationship.
Nr2e3 loss-of-function mutations lead to a reduction in rod gene expression. To determine whether the same was true for PR1 (FIG. 6D), explant cultures of P12 retina as above were treated and assayed for other rod photoreceptor genes. After 2 days in culture, PR1 decreased the expression of the rod specific genes Nrl, Nr2e3, Rho, Gnat1, and Pde6b compared to DMSO treatment by qPCR analysis (FIG. 6C). […] To determine the dose-response relationship between PR1 concentration and expression of rod genes, retinas from P12 mice were explanted in media containing DMSO or 0.1, 1, 5, or 10 μM PR1 for 2-3 days and assayed Nrl, Nr2e3, and Rho expression by qPCR. […] PR1 was tested to determine whether it could cause a reduction in Rho expression in human rod photoreceptors as well. Pairs of 113 day post-conception retinas were explanted in media with DMSO or 10 μM PR1 for 7 or 23 days. After 7 and 23 days in culture, PR1 decreased the expression of Rho compared to DMSO treatment (FIG. 6F), similar to the effect observed in mouse retinal explants.
Intact retinas without RPE from mice of various strains and ages as indicated were explanted on 0.4 μm pore tissue culture inserts (Millipore) as previously described (Ueki, Y., et al., P53 is required for the developmental restriction in Muller glial proliferation in mouse retina. Glia, 2012. 60(10): p. 1579-89; Ueki, Y., et al., A transient wave of BMP signaling in the retina is necessary for Muller glial differentiation. Development, 2015. 142(3): p. 533-43. Full media (DMEM/F12 (1:1) containing 1% dialyzed FBS, 1% Pen Strep, 0.3% D+ glucose, 2% B27, and 1% N2) changes were performed every other day and small molecules were used at 0.1 μM to 10 μM. Where indicated, EdU (Invitrogen) was included in the media at 5 μg/mL and visualized by staining with the Click-iT EdU Alexa Fluor kit (Thermo Fisher Scientific). For human retinal explant cultures, tissue from 113 day post-conception fetuses was obtained from the University of Washington Birth Defects Laboratory and explanted on 0.4 μm pore tissue culture inserts (Millipore) in media (Neurobasal A with 1% FBS, 1% Pen Strep, 1% N2, 1% B27) containing 10 μM Photoregulin1 or an equal volume of DMSO.
RNA was isolated using TRIzol (Invitrogen) and cDNA was synthesized using the iScript cDNA synthesis kit (Bio-Rad) following an intervening DNase treatment with RQ1 RNase-free DNase (Promega). SSO Fast (Bio-Rad) was used for quantitative real-time PCR. For analysis, values were normalized to Gapdh and ΔΔCt between DMSO and compound-treated samples was expressed as percent of DMSO treated controls (100*2^ΔΔCt). Two-way Student's t-tests were performed on ΔCt values.

| Structure (SMILES) | cone gene expression, Thrb (Trβ2) (Thrb (Trβ2)) | relative rhodopsin (Rho) expression [1] |
| --- | --- | --- |
| Cc1cccc(C(=O)NC(C(=O)Nc2ncc(C)s2)C(C)C)c1 (stereo not shown) [CA95] | increase | reducing rhodopsin expression |
| Cc1cccc(C(=O)NCC(=O)Nc2ncc(C)s2)c1 [CA9513] | – | reducing rhodopsin expression |
| Cc1cc(C)cc(NC(=O)CCc2nc3sc4c(c3c(=O)[nH]2)CCC4)c1 [CA8801] | – | reducing rhodopsin expression |
